Experimental data taken from US8592456B2 (4SC Discovery GmbH, priority 2011, dated 2013).
pIC50: −log10 of the molar value.

system: PBMC (T cell proliferation); assay: T cell proliferation assay, PHA-stimulated human PBMC (BrdU ELISA); format: cell-based; conditions: PHA-stimulated human PBMC, 48 hours, BrdU; column D; activity classes 1-4; read-out: IC50 (Tcell proliferation)
How it was run: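 Healthy-donor human PBMC, Ficoll-isolated, seeded 1×10^5 cells/well in RPMI1640 with 10% dialyzed FCS, stimulated with 2 μg/ml PHA alongside test compound. Proliferation read after 48 hours by BrdU ELISA.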

Structure (SMILES)	pIC50
Cc1nnc(-c2c(-c3c(F)cccc3Cl)noc2-c2cnn(-c3ccccc3F)c2C(F)(F)F)o1 [Example I-11, 2-(3-(2-chloro-6-fluorophenyl)-5-(1-(2-fluorophenyl)-5-(trifluoromethyl)-1H-pyrazol-4-yl)isoxazol-4-yl)-5-methyl-1,3,4-oxadiazole]	6.00 to 7.00
Cc1nnc(-c2c(-c3c(F)cccc3Cl)noc2-c2cnn(-c3ccncc3)c2C(F)(F)F)s1 [IB-22, 3-(2-chloro-6-fluorophenyl)-4-(5-methyl-1,3,4-thiadiazol-2-yl)-5-(1-(pyridin-4-yl)-S-(trifluoromethyl)-1H-pyrazol-4-yl)isoxazole]	6.00 to 7.00
Cc1nnc(-c2c(-c3c(F)cccc3Cl)noc2-c2cnn(-c3cccnc3)c2C(F)(F)F)o1 [IB-10, 2-(3-(2-chloro-6-fluorophenyl)-5-(1-(pyridin-3-yl)-5-(trifluoromethyl)-1H-pyrazol-4-yl)isoxazol-4-yl)-5-methyl-1,3,4-oxadiazole]	6.00 to 7.00
Fc1cccc(Cl)c1-c1noc(-c2cnn(-c3cccnc3)c2C(F)(F)F)c1-c1cnco1 [IB-32, 3-(2-chloro-6-fluorophenyl)-4-(oxazol-5-yl)-5-(1-(pyridin-3-yl)-5-(trifluoromethyl)-1H-pyrazol-4-yl)isoxazole]	5.00 to 6.00

same assay, conditions: human PBMC, 2 μg/ml PHA, 48 hours, BrdU; read-out: D: IC50 (Tcell proliferation)

Structure (SMILES)	pIC50
CCOC(=O)c1c(-c2c(F)cccc2Cl)noc1-c1cnn(-c2ccc(NC(C)=O)cc2)c1C(F)(F)F [Example B-99, ethyl 5-(1-(4-acetamidophenyl)-5-(trifluoromethyl-1H-pyrazol-4-yl)-3-(2-chloro-6-fluorophenyl)isoxazole-4-carboxylate]	5.00 to 6.00
CCOC(=O)c1c(-c2onc(-c3c(F)cccc3Cl)c2C(=O)OC)cnn1-c1cccc(Cl)c1Cl [Example 9, methyl 3-(2-chloro-6-fluorophenyl)-5-(1-(2,3-dichlorophenyl)-5-(ethoxycarbonyl)-1H-pyrazol-4-yl)isoxazole-4-carboxylate]	5.00 to 6.00
CC(C)OC(=O)c1c(-c2c(F)cccc2Cl)noc1-c1cnn(-c2ccccc2F)c1C(F)(F)F [Example 43, i-Propyl 3-(2-chloro-6-fluorophenyl)-5-[1-(2-fluorophenyl)-5-(trifluoromethyl)-1H-pyrazol-4-yl]isoxazole-4-carboxylate]	7.00 to 8.00
COC(=O)c1c(-c2c(F)cccc2Cl)noc1-c1cnn(CC(C)C)c1C(F)(F)F [Example 28]	6.00 to 7.00
CNC(=O)c1c(-c2c(F)cccc2Cl)noc1-c1cnn(-c2ccc(F)cc2F)c1C(F)(F)F [Example 57, 3-(2-chloro-6-fluorophenyl)-5-(1-(2,4-difluorophenyl)-5-(trifluoromethyl)-1H-pyrazol-4-yl)-N-methylisoxazole-4-carboxamide]	5.00 to 6.00
CCOC(=O)c1c(-c2c(F)cccc2Cl)noc1-c1cnn(-c2ccccc2NC(C)=O)c1C(F)(F)F [Example B-1]	5.00 to 6.00
COC(=O)Nc1c(-c2c(F)cccc2Cl)noc1-c1cnn(-c2cccc(F)c2)c1C(F)(F)F [Example 138, methyl 3-(2-chloro-6-fluorophenyl)-5-[1-(3-fluorophenyl)-5-(trifluoromethyl)-1H-pyrazol-4-yl]isoxazol-4-ylcarbamate]	6.00 to 7.00
O=C(c1c(-c2c(F)cccc2Cl)noc1-c1cnn(-c2cccc(F)c2)c1C(F)(F)F)N1CCOCC1 [Example 127, (3-(2-chloro-6-fluorophenyl)-5-(1-(3-fluorophenyl)-5-(trifluoromethyl)-1H-pyrazol-4-yl)isoxazol-4-yl)(morpholino)methanone]	5.00 to 6.00
CCOC(=O)c1c(-c2ccncc2F)noc1-c1cnn(-c2ccccc2F)c1C(F)(F)F [Example B-15, ethyl 5-(1-(2-fluorophenyl)-5-(trifluoromethyl)-1H-pyrazol-4-yl)-3-(3-fluoropyridin-4-yl)isoxazole-4-carboxylate]	6.00 to 7.00
CNC(=O)c1c(-c2c(F)cccc2Cl)noc1-c1cnn(-c2ccccc2F)c1C(F)(F)F [Example 19, 3-(2-chloro-6-fluorophenyl)-5-(1-(2-fluorophenyl)-5-(trifluoromethyl)-1H-pyrazol-4-yl)-N-methylisoxazole-4-carboxamide]	5.00 to 6.00
CNC(=O)c1c(-c2c(Cl)cccc2Cl)noc1-c1cnn(-c2cccc(F)c2)c1C(F)(F)F [Example 110, 3-(2,6-dichlorophenyl)-5-(1-(3-fluorophenyl)-5-(trifluoromethyl)-1H-pyrazol-4-yl)-N-methylisoxazole-4-carboxamide]	7.00 to 8.00
COC(=O)c1c(-c2c(F)cccc2Cl)noc1-c1cnn(-c2ccc(S(C)(=O)=O)cc2)c1C(F)(F)F [Example 85, methyl 3-(2-chloro-6-fluorophenyl)-5-(1-(4-(methylsulfonyl)phenyl)-5-(trifluoromethyl)-1H-pyrazol-4-yl)isoxazole-4-carboxylate]	5.00 to 6.00
CCOC(=O)c1c(-c2c(Cl)cncc2Cl)noc1-c1cnn(-c2cccc(Cl)c2)c1C(F)(F)F [Example B-7, ethyl 5-(1-(3-chlorophenyl)-5-(trifluoromethyl)-1H-pyrazol-4-yl)-3-(3,5-dichloropyridin-4-yl)isoxazole-4-carboxylate]	5.00 to 6.00
CCOC(=O)c1c(-c2onc(-c3c(F)cccc3Cl)c2C(=O)OC)cnn1-c1ccc(Cl)cc1Cl [Example 6, methyl 3-(2-chloro-6-fluorophenyl)-5-(1-(2,4-dichlorophenyl)-5-(ethoxycarbonyl)-1H-pyrazol-4-yl)isoxazole-4-carboxylate]	5.00 to 6.00
O=C(c1c(-c2c(F)cccc2Cl)noc1-c1cnn(-c2cccc(F)c2)c1C(F)(F)F)N1CCCO1 [Example 118, (3-(2-chloro-6-fluorophenyl)-5-(1-(3-fluorophenyl)-5-(trifluoromethyl)-1H-pyrazol-4-yl)isoxazol-4-yl)(isoxazolidin-2-yl)methanone]	7.00 to 8.00
CCOC(=O)c1c(-c2onc(-c3c(F)cccc3Cl)c2C(=O)OC)cnn1-c1cccc(C#N)c1 [Example 13, methyl 3-(2-chloro-6-fluorophenyl)-5-(1-(3-cyanophenyl)-5-(ethoxycarbonyl)-1H-pyrazol-4-yl)isoxazole-4-carboxylate]	6.00 to 7.00
CCOC(=O)c1c(-c2c(F)cccc2Cl)noc1-c1cnn(CCN2CCOCC2)c1C(F)(F)F [Example B-97, ethyl 3-(2-chloro-6-fluorophenyl)-5-(1-(2-morpholinoethyl)-5-(trifluoromethyl)-1H-pyrazol-4-yl)isoxazole-4-carboxylate]	5.00 to 6.00
CN1CCN(C(=O)c2c(-c3c(F)cccc3Cl)noc2-c2cnn(-c3cccc(Cl)c3)c2C(F)(F)F)CC1 [Example B-34, (3-(2-chloro-6-fluorophenyl)-5-(1-(3-chlorophenyl)-5-(trifluoromethyl)-1H-pyrazol-4-yl)-isoxazol-4-yl)(4-methylpiperazin-1-yl)methanone]	6.00 to 7.00
COC(=O)c1c(-c2cccc(F)c2)noc1-c1cnn(-c2cccc(F)c2)c1C(F)(F)F [Example 106, methyl 3-(3-fluorophenyl)-5-(1-(3-fluorophenyl)-5-(trifluoromethyl)-1H-pyrazol-4-yl)isoxazole-4-carboxylate]	5.00 to 6.00
CON(C)C(=O)c1c(-c2c(F)cccc2Cl)noc1-c1cnn(-c2cccc(F)c2)c1C(F)(F)F [Example 135, 3-(2-chloro-6-fluorophenyl)-5-(1-(3-fluorophenyl)-5-(trifluoromethyl)-1H-pyrazol-4-yl)-N-methoxy-N-methylisoxazole-4-carboxamide]	6.00 to 7.00
